Reference: PubChem BioAssay AID1963964 (Molecular Pharmacology Branch, DTP, NCI, 2024)

Test system: 997726-040-R-J2-PDC tumor spheroids, viability
Test: Anticancer human tumor 997726-040-R-J2-PDC patient-derived squamous cell lung carcinoma cell line growth inhibition [PI3K]
Details: spheroids with HUVEC and MSC; for IC50: curve of first compound; for viability, T/C: stronger effect = lower value
How it was run: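 Combination activity was assessed by viability in multicellular tumor spheroids carrying HUVEC and MSC components. Agents were tested with PI3K inhibitors from a Cmax-based top dose (or 10 microM) downward in half-log increments.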

[1] = second compound 0.00316 µM, first compound 0.0316 µM
[2] = second compound 0.00316 µM, first compound 0.1 µM
[3] = second compound 0.00316 µM, first compound 0.316 µM
[4] = second compound 0.00316 µM, first compound 1 µM
[5] = second compound 0.00316 µM, first compound 3.16 µM
[6] = second compound 0.00316 µM, first compound 10 µM
[7] = second compound 0.01 µM, first compound 0.0316 µM
[8] = second compound 0.01 µM, first compound 0.1 µM
[9] = second compound 0.01 µM, first compound 0.316 µM
[10] = second compound 0.01 µM, first compound 1 µM
[11] = second compound 0.01 µM, first compound 3.16 µM
[12] = second compound 0.01 µM, first compound 10 µM
[13] = second compound 0.0316 µM, first compound 0.0316 µM
[14] = second compound 0.0316 µM, first compound 0.1 µM
[15] = second compound 0.0316 µM, first compound 0.316 µM
[16] = second compound 0.0316 µM, first compound 1 µM
[17] = second compound 0.0316 µM, first compound 3.16 µM
[18] = second compound 0.0316 µM, first compound 10 µM
[19] = second compound 0.1 µM, first compound 0.0316 µM
[20] = second compound 0.1 µM, first compound 0.1 µM
[21] = second compound 0.1 µM, first compound 0.316 µM
[22] = second compound 0.1 µM, first compound 1 µM
[23] = second compound 0.1 µM, first compound 3.16 µM
[24] = second compound 0.1 µM, first compound 10 µM
[25] = second compound 0.316 µM, first compound 0.0316 µM
[26] = second compound 0.316 µM, first compound 0.1 µM
[27] = second compound 0.316 µM, first compound 0.316 µM
[28] = second compound 0.316 µM, first compound 1 µM
[29] = second compound 0.316 µM, first compound 3.16 µM
[30] = second compound 0.316 µM, first compound 10 µM
[31] = second compound 1 µM, first compound 0.0316 µM
[32] = second compound 1 µM, first compound 0.1 µM
[33] = second compound 1 µM, first compound 0.316 µM
[34] = second compound 1 µM, first compound 1 µM
[35] = second compound 1 µM, first compound 3.16 µM
[36] = second compound 1 µM, first compound 10 µM
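Further: spheroids exposed to compounds for seven days before readout.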

In the case of `C#Cc1c(F)ccc2cc(O)cc(-c3ncc4c(N5CC6CCC(C5)N6)nc(OCC56CCCN5CC(F)C6)nc4c3F)c12` (stereo unspecified) + CC(Nc1ccc2c(c1)OCCn1cc(N3C(=O)OCC3C(F)F)nc1-2)C(N)=O, the IC50 (second compound 0.00316 µM) is reported as greater than 10 µM, the IC50 (second compound 0.01 µM) is reported as greater than 10 µM and the IC50 (second compound 0.0316 µM) is reported as 5.35 µM. For the same molecule, the IC50 (second compound 0.1 µM) was less than 0.0316 µM, the IC50 (second compound 0.316 µM) was less than 0.0316 µM and the IC50 (second compound 1 µM) was less than 0.0316 µM. It also gave a viability, T/C [1] of 89.2%, a viability, T/C [2] of 97.8% and a viability, T/C [3] of 81.8%. The viability, T/C [4] was 83.5%, the viability, T/C [5] was 75.3% and the viability, T/C [6] was 77.4%. It also gave a viability, T/C [7] of 79%, a viability, T/C [8] of 83% and a viability, T/C [9] of 79.2%. It also gave a viability, T/C [10] of 75%, a viability, T/C [11] of 68.5% and a viability, T/C [12] of 55%. For the same molecule, the viability, T/C [13] was 62.4%, the viability, T/C [14] was 65% and the viability, T/C [15] was 55.3%. For the same molecule, the viability, T/C [16] was 60%, the viability, T/C [17] was 55.6% and the viability, T/C [18] was 44.2%. For the same molecule, the viability, T/C [19] was 45.8%, the viability, T/C [20] was 43.4% and the viability, T/C [21] was 45.5%. It also gave a viability, T/C [22] of 44.9%, a viability, T/C [23] of 38.5% and a viability, T/C [24] of 52.9%. It also gave a viability, T/C [25] of 35.8%, a viability, T/C [26] of 36.1% and a viability, T/C [27] of 31.9%. It also gave a viability, T/C [28] of 31.5%, a viability, T/C [29] of 25.6% and a viability, T/C [30] of 24.8%. The viability, T/C [31] was 26.8%, the viability, T/C [32] was 30.1% and the viability, T/C [33] was 27.2%. It also gave a viability, T/C [34] of 26.6%, a viability, T/C [35] of 26.1% and a viability, T/C [36] of 25.1%.
`CC(Cn1ccc(-c2ccc(C#N)c(Cl)c2)n1)NC(=O)c1cc(C(C)O)[nH]n1` (stereo unspecified) + CC(Nc1ccc2c(c1)OCCn1cc(N3C(=O)OCC3C(F)F)nc1-2)C(N)=O was tested, and the IC50 (second compound 0.00316 µM) was greater than 10 µM, the IC50 (second compound 0.01 µM) was greater than 10 µM and the IC50 (second compound 0.0316 µM) was greater than 10 µM. The IC50 (second compound 0.1 µM) was less than 0.0316 µM, the IC50 (second compound 0.316 µM) was less than 0.0316 µM and the IC50 (second compound 1 µM) was less than 0.0316 µM. The viability, T/C [1] was 85.8%, the viability, T/C [2] was 88.3% and the viability, T/C [3] was 89.4%. The viability, T/C [4] was 91.4%, the viability, T/C [5] was 97.3% and the viability, T/C [6] was 85.4%. It also gave a viability, T/C [7] of 78.3%, a viability, T/C [8] of 81% and a viability, T/C [9] of 80%. For the same molecule, the viability, T/C [10] was 84.5%, the viability, T/C [11] was 84.1% and the viability, T/C [12] was 89.4%. It also gave a viability, T/C [13] of 61.1%, a viability, T/C [14] of 70.2% and a viability, T/C [15] of 67.3%. It also gave a viability, T/C [16] of 62.6%, a viability, T/C [17] of 63.8% and a viability, T/C [18] of 64.7%. The viability, T/C [19] was 48.5%, the viability, T/C [20] was 45.5% and the viability, T/C [21] was 54.1%. For the same molecule, the viability, T/C [22] was 51.4%, the viability, T/C [23] was 47.3% and the viability, T/C [24] was 48.2%. It also gave a viability, T/C [25] of 39%, a viability, T/C [26] of 32.9% and a viability, T/C [27] of 32.8%. For the same molecule, the viability, T/C [28] was 33.7%, the viability, T/C [29] was 35.8% and the viability, T/C [30] was 31.5%. The viability, T/C [31] was 31.1%, the viability, T/C [32] was 26.7% and the viability, T/C [33] was 26.6%. It also gave a viability, T/C [34] of 30.5%, a viability, T/C [35] of 28.6% and a viability, T/C [36] of 24.5%.
`CC1(C)CCC(Nc2ncc(C(F)(F)F)c(-c3c[nH]c4c(P(C)(C)=O)c(C#N)ccc34)n2)CN1` (stereo unspecified) + CC(Nc1ccc2c(c1)OCCn1cc(N3C(=O)OCC3C(F)F)nc1-2)C(N)=O showed an IC50 (second compound 0.00316 µM) of less than 0.0316 µM, an IC50 (second compound 0.01 µM) of less than 0.0316 µM and an IC50 (second compound 0.0316 µM) of less than 0.0316 µM. It also gave an IC50 (second compound 0.1 µM) of less than 0.0316 µM, an IC50 (second compound 0.316 µM) of less than 0.0316 µM and an IC50 (second compound 1 µM) of less than 0.0316 µM. The viability, T/C [1] was 28.7%, the viability, T/C [2] was 30% and the viability, T/C [3] was 33.1%. It also gave a viability, T/C [4] of 33.6%, a viability, T/C [5] of 32.4% and a viability, T/C [6] of 5.79%. For the same molecule, the viability, T/C [7] was 32.1%, the viability, T/C [8] was 30.8% and the viability, T/C [9] was 28.8%. For the same molecule, the viability, T/C [10] was 31%, the viability, T/C [11] was 28.3% and the viability, T/C [12] was 4.9%. It also gave a viability, T/C [13] of 25.6%, a viability, T/C [14] of 22.9% and a viability, T/C [15] of 23.5%. It also gave a viability, T/C [16] of 26.1%, a viability, T/C [17] of 25.2% and a viability, T/C [18] of 4.37%. The viability, T/C [19] was 14.3%, the viability, T/C [20] was 18.4% and the viability, T/C [21] was 17.3%. For the same molecule, the viability, T/C [22] was 21.5%, the viability, T/C [23] was 19.6% and the viability, T/C [24] was 3.37%. The viability, T/C [25] was 14.6%, the viability, T/C [26] was 12.9% and the viability, T/C [27] was 14.1%. The viability, T/C [28] was 13.4%, the viability, T/C [29] was 13% and the viability, T/C [30] was 1.45%. For the same molecule, the viability, T/C [31] was 11.4%, the viability, T/C [32] was 9.53% and the viability, T/C [33] was 10.6%. It also gave a viability, T/C [34] of 11%, a viability, T/C [35] of 12.6% and a viability, T/C [36] of 1.25%.
